From US11040981B2, “Pyrrolotriazine compounds and methods of inhibiting TAM kinases” (Syros Pharmaceuticals, Inc., priority 2017, dated 2021)
Structures can show the parent of a compound that is named as a salt.

How the values were obtained:
FLT3 = target: T1, FLT3 (Homo sapiens, UniProt P36888); test: TR-FRET kinase activity assay, FLT3; format: biochemical; details: ATP at Km, 60 minutes
T1 sequence (P36888 27-993): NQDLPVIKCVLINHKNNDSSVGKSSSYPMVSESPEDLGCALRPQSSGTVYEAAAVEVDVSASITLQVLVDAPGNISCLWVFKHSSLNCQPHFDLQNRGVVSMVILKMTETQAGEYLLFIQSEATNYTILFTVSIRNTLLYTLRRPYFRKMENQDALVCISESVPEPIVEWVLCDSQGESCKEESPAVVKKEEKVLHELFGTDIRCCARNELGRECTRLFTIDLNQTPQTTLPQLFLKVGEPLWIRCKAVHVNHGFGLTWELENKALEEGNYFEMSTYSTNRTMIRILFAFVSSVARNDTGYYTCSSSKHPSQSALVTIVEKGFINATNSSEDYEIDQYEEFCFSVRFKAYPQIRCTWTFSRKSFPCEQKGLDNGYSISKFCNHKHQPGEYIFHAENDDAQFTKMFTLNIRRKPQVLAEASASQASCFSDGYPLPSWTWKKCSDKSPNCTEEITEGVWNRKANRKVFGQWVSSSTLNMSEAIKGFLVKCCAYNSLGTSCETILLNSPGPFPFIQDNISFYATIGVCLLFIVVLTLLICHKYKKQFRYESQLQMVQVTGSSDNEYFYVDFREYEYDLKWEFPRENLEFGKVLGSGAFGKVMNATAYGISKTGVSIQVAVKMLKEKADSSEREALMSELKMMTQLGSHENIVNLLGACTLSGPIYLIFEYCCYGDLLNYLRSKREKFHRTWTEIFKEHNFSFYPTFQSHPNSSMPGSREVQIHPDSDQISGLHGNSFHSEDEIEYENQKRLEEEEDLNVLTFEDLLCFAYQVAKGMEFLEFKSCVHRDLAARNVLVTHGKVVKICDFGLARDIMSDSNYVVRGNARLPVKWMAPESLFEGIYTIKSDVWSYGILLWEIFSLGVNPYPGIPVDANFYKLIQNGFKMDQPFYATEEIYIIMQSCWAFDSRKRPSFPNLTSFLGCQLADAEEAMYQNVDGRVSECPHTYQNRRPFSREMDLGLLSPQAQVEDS
Procedure, shortened: (§1)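 Inhibition is measured as loss of phospho-peptide formation: kinase, fluorescent tyrosine peptide and compound are combined, ATP is added at Km, and the reaction proceeds 60 min at RT in pH 7.5 HEPES buffer. An EDTA stop and Eu-labelled phospho-specific antibody allow TR-FRET detection for IC50 fitting.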

TYRO3 = target: T2, TYRO3 (Homo sapiens, UniProt Q06418); test: TR-FRET kinase activity assay, TYRO3; format: biochemical; details: ATP at Km, 60 minutes
T2 sequence (Q06418 41-890): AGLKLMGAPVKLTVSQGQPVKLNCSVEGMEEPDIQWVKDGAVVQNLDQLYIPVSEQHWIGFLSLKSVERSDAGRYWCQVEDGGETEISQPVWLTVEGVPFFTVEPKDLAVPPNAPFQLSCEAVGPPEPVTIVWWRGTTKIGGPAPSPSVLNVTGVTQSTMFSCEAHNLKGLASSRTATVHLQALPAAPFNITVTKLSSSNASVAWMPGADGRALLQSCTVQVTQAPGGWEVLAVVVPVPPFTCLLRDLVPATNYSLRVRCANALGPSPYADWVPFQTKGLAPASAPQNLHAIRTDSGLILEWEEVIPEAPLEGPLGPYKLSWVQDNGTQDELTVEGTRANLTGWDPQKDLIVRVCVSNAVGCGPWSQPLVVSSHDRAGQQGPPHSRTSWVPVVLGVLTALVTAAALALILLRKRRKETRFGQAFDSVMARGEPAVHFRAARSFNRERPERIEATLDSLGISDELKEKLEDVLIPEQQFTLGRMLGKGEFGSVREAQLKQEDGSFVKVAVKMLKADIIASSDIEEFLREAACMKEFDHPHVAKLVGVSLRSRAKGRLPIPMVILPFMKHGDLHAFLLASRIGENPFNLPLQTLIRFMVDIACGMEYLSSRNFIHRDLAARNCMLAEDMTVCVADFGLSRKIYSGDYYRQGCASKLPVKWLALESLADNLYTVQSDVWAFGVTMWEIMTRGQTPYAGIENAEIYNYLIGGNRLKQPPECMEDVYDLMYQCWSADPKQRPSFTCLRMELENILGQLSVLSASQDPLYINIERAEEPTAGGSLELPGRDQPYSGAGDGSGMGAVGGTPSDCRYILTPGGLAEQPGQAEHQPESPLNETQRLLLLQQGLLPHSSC
Procedure, shortened: as §1

| IC50 (FLT3) | IC50 (TYRO3) | Structure (SMILES) |
| --- | --- | --- |
| 1000 to 10000 nM | ≤ 100 nM | COC[C@H](C)Nc1ncc2c(-c3ccnc(C)c3)cc(C3CCC4(CC3)NC(=O)NC4=O)n2n1 (mixture of isomers) [Compound 325, (S)-8-(2-((1-methoxypropan-2-yl)amino)-5-(2-methylpyridin-4-yl)pyrrolo[2,1-f][1,2,4]triazin-7-yl)-1,3-diazaspiro[4.5]decane-2,4-dione] |
| 100 to 1000 nM | ≤ 100 nM | CCCCC[C@H](C)Nc1ncc2c(C3=CC[C@@H](C(=O)N4CCOCC4)CC3)cc([C@H]3CC[C@H](O)CC3)n2n1 [Compound 113] |
| 100 to 1000 nM | ≤ 100 nM | CCCCC[C@H](C)Nc1ncc2c(N3CCNCC3)cc([C@H]3CC[C@H](O)CC3)n2n1 [Compound 114] |
| 1000 to 10000 nM | 100 to 1000 nM | CCCCC[C@H](C)Nc1ncc2c(N3CCC(N(C)C)CC3)cc(C3CCC(O)CC3)n2n1.Cl (stereo partly drawn) [Compound 115, 4-[5-[4-(dimethylamino)-1-piperidyl]-2-[[(1S)-1-methylhexyl]amino]pyrrolo[2,1-f][1,2,4]triazin-7-yl]cyclohexanol hydrochloride] |
| 100 to 1000 nM | ≤ 100 nM | CCCCC[C@H](C)Nc1ncc2c(C3CCNCC3)cc([C@H]3CC[C@H](O)CC3)n2n1 [Compound 116, (1S,4r)-4-(2-((S)-heptan-2-ylamino)-5-(piperidin-4-yl)pyrrolo[2,1-f][1,2,4]triazin-7-yl)cyclohexanol hydrochloride] |
| 1000 to 10000 nM | 100 to 1000 nM | CCCCC[C@H](C)Nc1ncc2c(N3CCC(C(=O)O)CC3)cc([C@H]3CC[C@H](O)CC3)n2n1 [Compound 117] |
| ≤ 100 nM | ≤ 100 nM | CC[C@H](C)Nc1ncc2c(-c3ccc(CN4CCN(C)CC4)cc3)cc([C@H]3CC[C@H](O)CC3)n2n1 [Compound 118] |
| 100 to 1000 nM | ≤ 100 nM | CNS(=O)(=O)c1cncc(-c2cc([C@H]3CC[C@H](O)CC3)n3nc(N[C@@H](C)COC)ncc23)c1 [Compound 272] |
| 100 to 1000 nM | ≤ 100 nM | CC(CC(F)(F)F)Nc1ncc2c(-c3cncc(S(C)(=O)=O)c3)cc(C3CCC(O)CC3)n2n1 (stereo not shown) [Compound 273] |
| ≤ 100 nM | ≤ 100 nM | COCCn1cc(-c2cc([C@H]3CC[C@H](O)CC3)n3nc(N[C@@H](C)COC(F)F)ncc23)cn1 [Compound 274] |
| 1000 to 10000 nM | ≤ 100 nM | CNS(=O)(=O)c1cncc(-c2cc([C@H]3CC[C@H](O)CC3)n3nc(N[C@@H](C)COC(F)F)ncc23)c1 [Compound 275] |
| 100 to 1000 nM | ≤ 100 nM | C[C@@H](CC(F)(F)F)Nc1ncc2c(-c3cn[nH]c3)cc([C@H]3CC[C@H](O)CC3)n2n1 [Compound 276] |
| ≤ 100 nM | ≤ 100 nM | COC[C@H](C)Nc1ncc2c(-c3cnn(Cc4nnc(C)o4)c3)cc([C@H]3CC[C@H](O)CC3)n2n1 [Compound 277] |
| 100 to 1000 nM | ≤ 100 nM | CNS(=O)(=O)c1cncc(-c2cc([C@H]3CC[C@H](O)CC3)n3nc(N[C@@H](C)CC(F)(F)F)ncc23)c1 [Compound 278] |
| 100 to 1000 nM | ≤ 100 nM | COC[C@H](C)Nc1ncc2c(-c3ccc(S(C)(=O)=O)nc3)cc([C@H]3CC[C@H](O)CC3)n2n1 [Compound 279] |
| 100 to 1000 nM | ≤ 100 nM | COC[C@H](C)Nc1ncc2c(-c3cnn(CCS(C)(=O)=O)c3)cc([C@H]3CC[C@H](O)CC3)n2n1 [Compound 280] |
| ≤ 100 nM | ≤ 100 nM | COC[C@H](C)Nc1ncc2c(-c3cnn(Cc4ccnnc4)c3)cc([C@H]3CC[C@H](O)CC3)n2n1 [Compound 281] |
| 100 to 1000 nM | ≤ 100 nM | COC[C@H](C)Nc1ncc2c(-c3cnn(C(C)(C)C(=O)N4CCOCC4)c3)cc([C@H]3CC[C@H](O)CC3)n2n1 [Compound 282] |

| IC50 (FLT3) | IC50 (TYRO3) | Structure (SMILES) |
| --- | --- | --- |
| 1000 to 10000 nM | ≤ 100 nM | COC[C@H](C)Nc1ncc2c(-c3cnn(C(C)(C)C(=O)N4CCC4)c3)cc([C@H]3CC[C@H](O)CC3)n2n1 [Compound 283] |
| 1000 to 10000 nM | ≤ 100 nM | COC[C@H](C)Nc1ncc2c(-c3cnn(C(C)(C)C(=O)O)c3)cc([C@H]3CC[C@H](O)CC3)n2n1 [Compound 284] |
| 100 to 1000 nM | ≤ 100 nM | COC[C@H](C)Nc1ncc2c(-c3cnn(Cc4noc(C)n4)c3)cc([C@H]3CC[C@H](O)CC3)n2n1 [Compound 285] |
| ≤ 100 nM | ≤ 100 nM | COC[C@H](C)Nc1ncc2c(-c3cnn(C4CN(C(C)=O)C4)c3)cc([C@H]3CC[C@H](O)CC3)n2n1 [Compound 286] |
| ≤ 100 nM | ≤ 100 nM | COC[C@H](C)Nc1ncc2c(-c3cnn(C4CC(S(C)(=O)=O)C4)c3)cc([C@H]3CC[C@H](O)CC3)n2n1 (stereo partly shown) [Compound 287] |
| ≤ 100 nM | ≤ 100 nM | C[C@@H](CC(F)(F)F)Nc1ncc2c(-c3cnn(CCS(C)(=O)=O)c3)cc([C@H]3CC[C@H](O)CC3)n2n1 [Compound 288] |
| ≤ 100 nM | ≤ 100 nM | C[C@@H](CC(F)(F)F)Nc1ncc2c(-c3cnn([C@@H]4CCOC4)c3)cc([C@H]3CC[C@H](O)CC3)n2n1 [Compound 289] |
| ≤ 100 nM | ≤ 100 nM | C[C@@H](CC(F)(F)F)Nc1ncc2c(-c3cnn([C@H]4CCOC4)c3)cc([C@H]3CC[C@H](O)CC3)n2n1 [Compound 290] |
| 100 to 1000 nM | ≤ 100 nM | COC[C@H](C)Nc1ncc2c(-c3cnn(C4CN(CCC(F)(F)F)C4)c3)cc([C@H]3CC[C@H](O)CC3)n2n1 [Compound 291] |
| 100 to 1000 nM | ≤ 100 nM | COC[C@H](C)Nc1ncc2c(-c3cnn(Cc4nc(C)no4)c3)cc([C@H]3CC[C@H](O)CC3)n2n1 [Compound 292] |
| 100 to 1000 nM | ≤ 100 nM | COC[C@H](C)Nc1ncc2c(-c3cnn(C4CN(C(=O)C5COC5)C4)c3)cc([C@H]3CC[C@H](O)CC3)n2n1 [Compound 293] |
| ≤ 100 nM | ≤ 100 nM | COC[C@H](C)Nc1ncc2c(-c3cnn(C4CN(C(=O)C5(C(F)(F)F)CC5)C4)c3)cc([C@H]3CC[C@H](O)CC3)n2n1 [Compound 294] |
| 1000 to 10000 nM | ≤ 100 nM | CNC(=O)C(C)(C)n1cc(-c2cc([C@H]3CC[C@H](O)CC3)n3nc(N[C@@H](C)COC)ncc23)cn1 [Compound 295] |
| ≤ 100 nM | ≤ 100 nM | Cc1nnc(Cn2cc(-c3cc([C@H]4CC[C@H](O)CC4)n4nc(N[C@@H](C)CC(F)(F)F)ncc34)cn2)o1 [Compound 296] |
| ≤ 100 nM | ≤ 100 nM | C[C@@H](CC(F)(F)F)Nc1ncc2c(-c3ccc(S(C)(=O)=O)nc3)cc([C@H]3CC[C@H](O)CC3)n2n1 [Compound 297] |
| 1000 to 10000 nM | ≤ 100 nM | C[C@@H](CC(F)(F)F)Nc1ncc2c(-c3cncc(C(=O)O)c3)cc([C@H]3CC[C@H](O)CC3)n2n1 [Compound 298] |
| 1000 to 10000 nM | ≤ 100 nM | CC(CC(F)(F)F)Nc1ncc2c(-c3cnc(C(=O)O)nc3)cc(C3CCC(O)CC3)n2n1 (stereo not shown) [Compound 299] |
